The values that follow come from patent EP0791056B1, “LIPID-CLEAVAGE ENZYME COMPLEX” (priority 1994, dated 1996).

Series [1] has as its system LCE (Lipid-Cleavage-Enzyme). Briefly: Enzymatic cleavage of AZT-DMDOPE, detection of cleavage products by thin-layer chromatography. The class given is biochemical. The following applies: 10 mg AZT-DMDOPE in 0,1 M Tris, 15 h + 6 h at 37 °C. Here is the method:
(§1) 10 mg (3'-Desoxy-3'-azidothymidin)-5'-phosphorsäure-(3-dodecyl-mercapto-2-decyl-oxy)-propylester (AZT-DMDOPE) werden in 0,5 ml 0,1 M Tris-Pufferlösung suspendiert und nach Zugabe des Enzyms (0,5 mg bei Phosphodiesterase und 0,1 mg bei Phospholipase/Nuclease) 15 Stunden bei 37 °C inkubiert. Anschließend wird die Lösung dünnschichtchromatographisch untersucht. Nach Zugabe von 5 Tropfen gesättigter NaHCO3-Lösung wurde weitere 6 Stunden bei 37 °C inkubiert und anschließend die Lösung dünnschichtchromatographisch untersucht.
(§2) Durch Dünnschichtchromatographie mit verschiedenen Elutionsmitteln wurde die Lösung hinsichtlich der Bildung der möglichen Spaltprodukte (AZT, AZT-monophosphat, DMDOP und Lipidmonophosphat) untersucht.
(§3) • a) Phospholipase C aus Bacillus cereus, 2000 U/0,5 ml, Boehringer Mannheim GmbH • b) Phospholipase D, Typ I, aus Kohl, 150 - 300 U/mg, Sigma • c) Phosphodiesterase aus Kalbsmilz, 2 U/mg, Boehringer Mannheim GmbH • d) Phosphodiesterase aus Schlangengift, Boehringer Mannheim GmbH • e) Nuclease aus Staphylococcus aureus, 15 000 U/mg, Boehringer Mannheim GmbH • f) LCE (Lipid-Cleavage-Enzyme)

Series [2] has as its target T1, Nuclease aus Staphylococcus aureus (Staphylococcus aureus, UniProt P00644).
T1 construct: purchased Boehringer Mannheim GmbH
Described as above. The following applies: 10 mg AZT-DMDOPE in 0,1 M Tris, 0,1 mg enzyme, 15 h + 6 h at 37 °C. It counts as biochemical. Here is the method:
as §1, §2, §3

The target in series [3] is T2, Phospholipase C aus Bacillus cereus (Bacillus cereus, UniProt P09598).
T2 construct: purchased Boehringer Mannheim GmbH
T2 sequence (P09598 39-283 limits assumed): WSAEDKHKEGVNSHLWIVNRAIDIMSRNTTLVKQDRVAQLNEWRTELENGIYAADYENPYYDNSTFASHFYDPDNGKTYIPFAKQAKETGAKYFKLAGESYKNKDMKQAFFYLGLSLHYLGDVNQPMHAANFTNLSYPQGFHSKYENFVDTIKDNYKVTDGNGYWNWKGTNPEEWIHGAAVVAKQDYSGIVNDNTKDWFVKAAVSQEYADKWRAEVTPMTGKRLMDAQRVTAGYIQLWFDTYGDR
Described as above. It counts as biochemical. The following applies: 10 mg AZT-DMDOPE in 0,1 M Tris, 0,1 mg enzyme, 15 h + 6 h at 37 °C. The protocol: as §1, §2, §3

The test system of the next series is LCE. Description: LCE assay: cleavage of [14C]-AZT-DMDOPE/AZT-DMDOPE to DMDOP by fractions of human blood cells. It counts as biochemical. The following applies: for Spezifische Aktivität: n = 4; for spezifische LCE-Aktivität / AZT-DMDOPE-spaltende Aktivität (spezifische Aktivität des LCE): n = 6; for Km / vmax: membrane fraction 0.068 mg/Ansatz. Here is the method: Das Pipettierschema ist in der folgenden Tabelle angegeben. Tabelle
Zur Untersuchung der enzymatischen Spaltung in Abhängigkeit von der Substratkonzentration wurde eine Substratstammlösung von 0.98 nmol [^14C]-AZT-DMDOPE und 0.7 nmol AZT-DMDOPE/80 µl Aqua bidest. im LCE-Assay angesetzt. Die verschiedenen Substratkonzentrationen im LCE-Assay wurden durch kontinuierliche Verdopplung bzw. Halbierung des Volumens an Substratlösung eingestellt. Die Ansätze wurden in Glasröhrchen (5 ml) vorgelegt und durch Zugabe der Substratlösung gestartet. Die Inkubation wurde bei 37 °C im Wasserbad unter leichtem Schütteln durchgeführt.
Die Reaktionsansätze des LCE-Assays wurden nach entsprechender Inkubationszeit dem Wasserbad entnommen, und die Reaktion durch Zugabe von 750 µl 2-Propanol gestoppt. Nach gründlicher Durchmischung wurden die Ansätze anschließend mit 700 µl auf Raumtemperatur erwärmtem n-Heptan versetzt. Die Ansätze wurden erneut für 30 sec gut gemischt und zur Beschleunigung der Phasentrennung in der Minifuge T bei 3200 rpm für 15 min bei Raumtemperatur zentrifugiert. Anschließend wurden 500 µl der oberen Phase (n-Heptan) entnommen und in neue Glasröhrchen (5 ml) mit 10 mg Kieselgel 60 H und 200 µl n-Heptan überführt. Die Ansätze wurden für 30 sec gut durchmischt und zur Sedimentation des Kieselgels für 10 min unter oben genannten Bedingungen zentrifugiert. Vom Überstand wurden anschließend 500 µl entnommen und mit 3 ml Szintillationsflüssigkeit versetzt. Die Messung der Radioaktivität erfolgte für 4 min im Flüssigkeits-Szintillations-Analysator. Zur Bestimmung des Absolutwertes an Radioaktivität wurden 200 µl der Substratlösung mit 3 ml Szintillationsflüssigkeit versetzt und unter gleichen Bedingungen im Flüssigkeits-Szintillations-Analysator gemessen.
Für diese Untersuchungen ist ein Enzym-Assay etabliert, in dem AZT-DMDOPE und [^14C]-AZT-DMDOPE als Substrat eingesetzt wurde (Beispiel 6). […] Bei substratabhängigen Umsetzungen wurde eine Stammlösung von 0.98 nmol [^14C]-AZT-DMDOPE und 0.7 nmol AZT-DMDOPE /80 µl eingesetzt. Die verschiedenen Substratkonzentrationen wurden anschließend durch kontinuierliche Verdopplung bzw. Halbierung des Volumens an Substratlösung eingestellt.
Die Quantifizierung der enzymatischen Spaltung von AZT-DMDOPE wurde durch eine zweistufge Extraktion des Metaboliten DMDOP mit n-Heptan und anschließender Adsorption von Resten des Substrates AZT-DMDOPE an Kieselgel 60 H durchgeführt. Hierbei wurden die Reaktionsansätze mit 2-Propanol und n-Heptan versetzt. wobei sich das im Vergleich zum Substrat unpolare DMDOP in der n-Heptan-Phase anreichert. Die n-Heptan-Phase wurde dann mit Kieselgel 60 H versetzt, wobei Reste des Substrates AZT-DMDOPE adsorbiert werden. Die n-Heptan-Phase wurde anschließend durch Zentrifugation vom Kieselgel separiert, in 3 ml Aqua luma überführt und die in ihr enthaltene Menge an radioaktiv markiertem DMDOP im Flüssigkeits-Szintillations-Analysator über einen Zeitraum von 5 min bestimmt. Aus diesen Ergebnissen konnte die prozentuale Umsetzung des Substrates AZT-DMDOPE zu DMDOP und die spezifische Aktivität des LCE errechnet werden. Als spezifische Aktivität wurde hierbei die Menge an DMDOP bezeichnet die pro 1 mg Protein der eingesetzten Zellpräparationen pro Minute gebildet wurde.
Nach Bestimmung der Proteinkonzentration in Zellhomogenaten, Zytosol- und Membranfraktionen mit Hilfe des Bicinchoninsäure(BCS)-Tests wurden 0.025 - 0.20 mg Protein/Ansatz eingesetzt.
Zur Isolierung der Plasmamembranen wurden 2 ml einer Zellsuspension stimulierter humaner PBL mit einer Zelldichte von 2.5 x 10^8 Zellen/ml durch dreimaliges Einfrieren und Auftauen aufgeschlossen und durch Zentrifugation im Percoll-Dichtegradienten fraktioniert.

The subject of series [4] is nichtstimulierten humanen PBL. Description: Intracellular concentrations of AZT and AZT nucleotides (radioimmunoassay) in non-stimulated human PBL. It counts as in vitro ADME. From the text: AZT wurden humane PBL aus "Buffy coat" isoliert.
For the next series, the system named is stimulierten humanen PBL. Description: Intracellular decay kinetics of AZT and AZT nucleotides after removal of the incubation solution. It counts as in vitro ADME, human. The protocol:
Stimulierte humane PBL wurden für 24 h mit 0.3 µg AZT/ml bzw. 10 µg AZT-DMDOPE/ml inkubiert. Anschließend wurden 1 x 10^7 Zellen in Gewebekulturflaschen (50 ml/25 cm^2) mit RPMI 1640 Komplettmedium I überführt. Nach 1, 3, 6, 24 und 48 h wurde AZT und die AZT-Nukleotide aus der zellulären Matrix extrahiert. Nach einer Behandlung mit alkalischer Phosphatase wurde mit Hilfe des Radioimmuno-Assays die Konzentration an AZT bestimmt.

Setting [5] is: humane Monozyten/Makrophagen (stimulierte Monozyten), 37 °C, 2 h.
Where [6] appears, read: nichtstimulierte humane PBL, 37 °C, 2 h.
The mark [7] stands for this setting: stimulierte humane PBL, 37 °C, 2 h.

Several values for one entry are separate records, joined by “and”; a condition that tells them apart may be missing. Equal values may be shown once.

`CCCCCCCCCCCCSCC(COP(=O)(O)OC[C@H]1O[C@@H](n2cc(C)c(=O)[nH]c2=O)C[C@@H]1N=[N+]=[N-])OCCCCCCCCCC` (stereo partly drawn) [AZT-DMDOPE, (3'-Desoxy-3'-azidothymidin)-5'-phosphorsäure-(3-dodecyl-mercapto-2-decyloxy)-propylester]: the results for the “Fluoreszenzauslöschung DC” value in series [1], in series [2] and in series [3] were “positiv”, “negativ” and “negativ”, respectively. In the series with LCE (Fraktion 8 (plasma membrane enriched) of Percoll gradient, stimulierte humane PBL, 0.05 mg protein/Ansatz, 37 °C, 2 h), the “höchste spezifische LCE-Aktivität” value is on record as 4.40 pmol mg^-1 min^-1 min. In addition, the “Spezifische Aktivität” value was 3.2 + 0.60 pmol mg^-1 min^-1 with LCE (Membranfraktion humaner Monozyten isolated in hypertonic density gradient, linear range) and 8.8 ± 0.26 pmol/mg/min in the series on LCE (Membranfraktion humaner Monozyten/Makrophagen (stimulated by adherence)). The “spezifische LCE-Aktivität” value was 1.45 ± 0.32 pmol/mg/min in the series on LCE (Membranfraktion nichtstimulierter humaner PBL, calculated from linear range); 14.23 ± 0.70 pmol/mg/min and 14.23 ± 0.7 pmol/mg/min with LCE (Membranfraktionen stimulierter humaner PBL, 2 h 37 °C). Further, the “AZT-DMDOPE-spaltende Aktivität (spezifische Aktivität des LCE)” value in the series with LCE (Zellhomogenate stimulierter humaner PBL, 2 h 37 °C) was 6.48 ± 0.38 pmol/mg/min; with LCE (Zytosolfraktionen stimulierter humaner PBL, 2 h 37 °C) it was 1.65 ± 0.40 pmol/mg/min. Also, the “spezifische Aktivitäten” value with LCE (all further fractions of Percoll gradient, stimulierte humane PBL, 0.05 mg protein/Ansatz, 37 °C, 2 h) lay within 1.10 to 1.90 pmol/mg/min. The Michaelis-Menten constant (Km) in the series on LCE (humane Monozyten, 37 °C, 2 h) amounted to 12.1 ± 4.13 µM; in the series on LCE (setting [5]), 4.63 ± 0.45 µM; with LCE (setting [6]) it was 5.51 ± 0.99 µM; in the series with LCE (setting [7]) it was 2.26 ± 0.16 µM. For the same molecule, the vmax with LCE (humane Monozyten, 37 °C, 2 h) worked out at 1.61 ± 0.37 pmol/mg/min; with LCE (setting [5]), 9.09 ± 0.44 pmol/mg/min; with LCE (setting [6]), 2.03 ± 0.19 pmol/mg/min; in the series with LCE (setting [7]), 15.29 ± 0.37 pmol/mg/min. For the same molecule, the “maximale intrazelluläre Konzentrationen an AZT und AZT-Nukleotiden” value turned out to be 0.62 ng/10^6 Zellen in series [4] (1 µg AZT-DMDOPE/ml) and 4.74 ng/10^6 Zellen in series [4] (10 µg AZT-DMDOPE/ml). Moreover, the “intrazelluläre Konzentrationen an AZT und AZT-Nukleotiden im Vergleich zur äquipotenten Konzentration an AZT” value in series [4] (whole incubation time) is “größer”. Further, the “um Faktor höhere Konzentration an phosphoryliertem AZT im Vergleich zu äquipotenter Konzentration an AZT” value in the series with stimulierten humanen PBL (10 µg AZT-DMDOPE/ml vs. 0.3 µg AZT/ml) amounted to 4.5. Besides, in the series on stimulierten humanen PBL (24 h preincubation with 10 µg AZT-DMDOPE/ml, reached after 3 h, constant over 48 h), the “konstanter Wert der intrazellulären Konzentrationen an AZT und AZT-Nukleotiden” value stood at 1.80 ng/10^6 Zellen.
